Test results published in US11286268B1, “EIF4E-inhibiting compounds and methods” (EFFECTOR THERAPEUTICS, INC., priority 2019, dated 2022).

Target: recombinant eIF4E (Homo sapiens (Human), UniProt P06730)
Test: Fluorescence polarization competition assay for eIF4E binding potency
Conditions: inhibition of eIF4E/EDA-m7GDP-ATTO-550 binding; calculated IC50 values, Table 4B; read-out: IC50
Procedure, shortened: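 IC50 derived from fluorescence polarization over an 8-point, 3-fold compound series after 30 min room-temperature equilibration in the dark. Mix: eIF4E 75 nM pre-bound 5 min to 20 nM EDA-m^7GDP-ATTO-550; buffer 20 mM Tris pH 7.5, 100 mM NaCl, 1 mM DTT, 0.02% Tween-20; DMSO 1%.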

Chain of recombinant eIF4E (P06730 whole entry): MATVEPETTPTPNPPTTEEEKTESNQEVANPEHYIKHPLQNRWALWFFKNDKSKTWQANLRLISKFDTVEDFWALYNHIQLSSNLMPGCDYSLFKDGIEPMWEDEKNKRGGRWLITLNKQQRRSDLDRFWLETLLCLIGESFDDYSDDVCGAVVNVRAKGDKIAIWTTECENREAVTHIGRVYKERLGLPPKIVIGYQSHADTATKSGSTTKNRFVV

IC50 | Compound
14.8 nM | Cc1nc2cnc(N(C)C3CCN(C4CC(F)(F)C4)CC3)c(C#N)c2c(=O)n1CC#Cc1ccc(Cl)cc1-c1ccnc2c(C(=O)NS(=O)(=O)C3CC(F)(F)C3)csc12 [compound 1833]
12.3 nM | CCN(c1ncc2nc(C)n(CC#Cc3ccc(Cl)cc3-c3ccnc4c(C(=O)NS(=O)(=O)c5ccncc5)csc34)c(=O)c2c1C#N)C1CCN(C2CC(F)(F)C2)CC1 [compound 1838]
34.5 nM | CCN(c1ncc2nc(C)n(CC#Cc3ccc(Cl)cc3-c3ccnc4c(C(=O)NS(=O)(=O)c5cccnc5)csc34)c(=O)c2c1C#N)C1CCN(C2CC(F)(F)C2)CC1 [compound 1839]
26.4 nM | CCN(c1ncc2nc(C)n(CC#Cc3ccc(Cl)cc3-c3ccnc4c(C(=O)NS(=O)(=O)c5ccccn5)csc34)c(=O)c2c1C#N)C1CCN(C2CC(F)(F)C2)CC1 [compound 1840]
12.7 nM | Cc1nc2cnc(N(C)[C@H]3CC[C@H](N(C)CC(F)F)CC3)c(C#N)c2c(=O)n1CC#Cc1ccc(Cl)cc1-c1ccnc2c(C(=O)O)csc12 [compound 1895]
12.2 nM | Cc1nc2cnc(N(C)[C@H]3CC[C@@H](N(C)CC(F)F)CC3)c(C#N)c2c(=O)n1CC#Cc1ccc(Cl)cc1-c1ccnc2c(C(=O)O)csc12 [compound 1896]
13.1 nM | Cc1nc2cnc(N(C)[C@@H]3CC[C@H](N(C)CC(F)F)C3)c(C#N)c2c(=O)n1CC#Cc1ccc(Cl)cc1-c1ccnc2c(C(=O)O)csc12 [compound 1897]
61.3 nM | Cc1nc2cnc(/C=C/CN(C)CC(F)(F)F)c(C#N)c2c(=O)n1CCOc1ccc(Cl)cc1-c1ccnc2c(C(=O)O)csc12 [compound 1898]
16.4 nM | N#Cc1cc(C(F)(F)F)cc2ncn(CCOc3ccc(Cl)cc3-c3ccnc4c(C(=O)O)csc34)c(=O)c12 [compound 1899]
2700 nM | COC(=O)c1csc2c(-c3cc(Cl)ccc3OCCn3c(C)nc4cc(C(F)(F)F)cc(C#N)c4c3=O)ccnc12 [compound 1900]
35.7 nM | Cc1nc2cc(C(F)(F)F)cc(C#N)c2c(=O)n1CC#Cc1ccc(Cl)cc1-c1ccnc2c(C(=O)O)csc12 [compound 1901]
29.8 nM | Cc1nc2cc(C(F)(F)F)cc(C#N)c2c(=O)n1CCOc1cc(F)c(Cl)cc1-c1ccnc2c(C(=O)O)csc12 [compound 1903]
36.9 nM | Cc1nc2cc(C(F)(F)F)c(Cl)c(C#N)c2c(=O)n1CCOc1ccc(Cl)cc1-c1ccnc2c(C(=O)O)csc12 [compound 1904]
881 nM | COC(=O)c1csc2c(-c3cc(Cl)ccc3OCCn3c(C)nc4cc(C(F)(F)F)c(Cl)c(C#N)c4c3=O)ccnc12 [compound 1905]
405 nM | COC(=O)c1csc2c(-c3cc(Cl)ccc3OCCn3c(C)nc4cc(C(F)(F)F)c(CN(C)C)c(C#N)c4c3=O)ccnc12 [compound 1907]
5.17 nM | Cc1cc(-c2cc(Cl)ccc2OCCn2c(C)nc3cc(C(F)(F)F)c(CC4CCN(C)CC4=O)c(C#N)c3c2=O)c2scc(C(=O)O)c2n1 (stereo not drawn) [compound 1908]
29.2 nM | Cc1cc(-c2cc(Cl)ccc2OCCn2c(C)nc3cc(C(F)(F)F)c(-c4ccc(F)c(C)n4)c(C#N)c3c2=O)c2scc(C(=O)O)c2n1 [compound 1909]
47.4 nM | Cc1ccc(-c2c(C(F)(F)F)cc3nc(C)n(CCOc4ccc(Cl)cc4-c4cc(C)nc5c(C(=O)O)csc45)c(=O)c3c2C#N)cn1 [compound 1910]
4.03 nM | CCc1ncc(-c2c(C(F)(F)F)cc3nc(C)n(CCOc4ccc(Cl)cc4-c4cc(C)nc5c(C(=O)O)csc45)c(=O)c3c2C#N)cc1F [compound 1911]

IC50 | Compound
5.96 nM | Cc1nc2cc(C(F)(F)F)c(N3CCC4(CC3)CN(CC(F)F)C4)c(C#N)c2c(=O)n1CCOc1ccc(Cl)cc1-c1ccnc2c(C(=O)O)csc12 [compound 1912]
22.9 nM | Cc1nc2cc(C(F)(F)F)c(N3CCC4(CC3)CN(CC(F)F)C4)c(C#N)c2c(=O)n1CCOc1ccc(Cl)cc1-c1ccnc2c(C(=O)NS(C)(=O)=O)csc12 [compound 1913]
4.81 nM | Cc1nc2cc(C(F)(F)F)c(N3CC4(C3)CN(C3CC3)C4)c(C#N)c2c(=O)n1CCOc1ccc(Cl)cc1-c1ccnc2c(C(=O)NS(C)(=O)=O)csc12 [compound 1930]
19.7 nM | CCc1cc(-c2cc(Cl)ccc2OCCn2c(C)nc3cc(C(F)(F)F)c(N4CC5(C4)CN(C4CC4)C5)c(C#N)c3c2=O)c2scc(C(=O)O)c2n1 [compound 1931]
8.4 nM | CCc1cc(-c2cc(Cl)ccc2OCCn2c(C)nc3cc(C(F)(F)F)c(N4CC5(C4)CN(C4CC4)C5)c(C#N)c3c2=O)c2scc(C(=O)NS(C)(=O)=O)c2n1 [compound 1932]
34.6 nM | Cc1sc2c(-c3cc(Cl)ccc3OCCn3c(C)nc4c(C)c(C(F)(F)F)c(N5CCN(C)CC5)c(C#N)c4c3=O)ccnc2c1C(=O)O [compound 1933]
38.5 nM | Cc1c(C(F)(F)F)c(N2CCN(C)CC2)c(C#N)c2c(=O)n(CCOc3ccc(Cl)cc3-c3ccnc4c(C(=O)O)csc34)c(C)nc12 [compound 1934]
80.1 nM | Cc1nc2ccc(C(F)(F)F)c(C#N)c2c(=O)n1CCOc1ccc(Cl)cc1-c1ccnc2c(C(=O)O)csc12 [compound 1935]
37.4 nM | Cc1nc2ccc(CN(C)C)c(C#N)c2c(=O)n1CCOc1ccc(Cl)cc1-c1ccnc2c(C(=O)O)csc12 [compound 1936]
38.2 nM | Cc1nc2cc(F)cc(C#N)c2c(=O)n1CCOc1ccc(Cl)cc1-c1ccnc2c(C(=O)O)csc12 [compound 1937]
46.3 nM | N#Cc1cc(F)cc2nc(C(F)F)n(CCOc3ccc(Cl)cc3-c3ccnc4c(C(=O)O)csc34)c(=O)c12 [compound 1938]
24.5 nM | Cc1nc2cc(C(F)F)cc(C#N)c2c(=O)n1CCOc1ccc(Cl)cc1-c1ccnc2c(C(=O)O)csc12 [compound 1939]
34.9 nM | Cc1nc2cc(OC(F)F)cc(C#N)c2c(=O)n1CCOc1ccc(Cl)cc1-c1ccnc2c(C(=O)O)csc12 [compound 1940]
61.6 nM | N#Cc1ccc(F)c2nc(C(F)F)n(CCOc3ccc(Cl)cc3-c3ccnc4c(C(=O)O)csc34)c(=O)c12 [compound 1941]
182 nM | Cc1nc2c(Cl)ccc(C#N)c2c(=O)n1CCOc1ccc(Cl)cc1-c1ccnc2c(C(=O)O)csc12 [compound 1942]
42.4 nM | N#Cc1ccc(C#N)c2c(=O)n(CCOc3ccc(Cl)cc3-c3ccnc4c(C(=O)O)csc34)c(C(F)F)nc12 [compound 1943]
24.9 nM | Cc1nc2c(F)cc(C(F)F)c(C#N)c2c(=O)n1CCOc1ccc(Cl)cc1-c1ccnc2c(C(=O)O)csc12 [compound 1944]
44.9 nM | Cc1nc2c(F)cc(C(F)F)c(C#N)c2c(=O)n1CCOc1ccc(Cl)cc1-c1ccnc2c(C(=O)NS(C)(=O)=O)csc12 [compound 1945]
44.7 nM | Cc1nc2c(c(C#N)cc3ccccc32)c(=O)n1CCOc1ccc(Cl)cc1-c1ccnc2c(C(=O)O)csc12 [compound 1946]

IC50 | Compound
29.7 nM | Cc1nc2cc(F)c(F)c(C#N)c2c(=O)n1CCOc1ccc(Cl)cc1-c1ccnc2c(C(=O)O)csc12 [compound 1947]
35.6 nM | Cc1nc2cc(S(=O)(=O)N(C)C)c(Cl)c(C#N)c2c(=O)n1CCOc1ccc(Cl)cc1-c1ccnc2c(C(=O)O)csc12 [compound 1948]
21.6 nM | Cc1nc2cc(Cl)c(C#N)c(C#N)c2c(=O)n1CCOc1ccc(Cl)cc1-c1ccnc2c(C(=O)O)csc12 [compound 1949]
41.7 nM | Cc1cc(-c2cc(Cl)ccc2OCCn2c(C)nc3cc(Cl)c(N4CC5(CCC5)C4)c(C#N)c3c2=O)c2scc(C(=O)O)c2n1 [compound 1950]
19.9 nM | Cc1nc2cc(Cl)c(C(F)F)c(C#N)c2c(=O)n1CCOc1ccc(Cl)cc1-c1ccnc2c(C(=O)O)csc12 [compound 1951]
89.3 nM | Cc1nc2cc3c(c(C#N)c2c(=O)n1CCOc1ccc(Cl)cc1-c1ccnc2c(C(=O)O)csc12)S(=O)(=O)N(C)C3 [compound 1953]
17 nM | Cc1nc2cc3c(c(C#N)c2c(=O)n1CCOc1ccc(Cl)cc1-c1ccnc2c(C(=O)O)csc12)S(=O)(=O)N(C)CC3 [compound 1954]
46.3 nM | Cc1cc(-c2cc(Cl)ccc2OCCn2c(C)nc3c(C)nc(CN(C)C)cc3c2=O)c2scc(C(=O)O)c2n1 [compound 1959]
43200 nM | Cc1nc2cnc(N(C)C3CCN(CC(C)(F)F)CC3)c(C(N)=O)c2c(=O)n1CC#Cc1ccc(Cl)cc1-c1ccnc2c(C(=O)OC(C)(C)C)csc12 [compound 1960]
211 nM | Cc1nc2cnc(N(C)C3CCN(CC(C)(F)F)CC3)c(C(N)=O)c2c(=O)n1CC#Cc1ccc(Cl)cc1-c1ccnc2c(C(=O)O)csc12 [compound 1961]
241 nM | Cc1cc(-c2cc(Cl)ccc2OCCn2c(C)nc3c(C4CC4)ncc(Cl)c3c2=O)c2scc(C(=O)O)c2n1 [compound 1963]
49.8 nM | Cc1cc(-c2cc(Cl)ccc2OCCn2c(C)nc3c(C#N)nc(C4CC4)c(C)c3c2=O)c2scc(C(=O)O)c2n1 [compound 1964]
86.4 nM | Cc1c(CC2CCOCC2)nc(C#N)c2nc(C)n(CC#Cc3ccc(Cl)cc3-c3ccnc4c(C(=O)O)csc34)c(=O)c12 [compound 1965]
67.2 nM | N#Cc1cc(C(F)(F)F)cc2c(Cl)c(Cl)n(CCOc3ccc(Cl)cc3-c3ccnc4c(C(=O)O)csc34)c(=O)c12 [compound 1970]
51.9 nM | Cc1cc(-c2cc(Cl)ccc2OCCn2c(C)nc3cc(C(F)(F)F)c(C4CCN(C)CC4)cc3c2=O)c2sc(C)c(C(=O)O)c2n1 [compound 1971]
18 nM | Cc1nc2cc(C(F)(F)F)c3c(c2c(=O)n1CCOc1ccc(Cl)cc1-c1ccnc2c(C(=O)O)csc12)C(=O)OC3 [compound 1972]
51.3 nM | Cc1cc(-c2cc(Cl)ccc2OCCn2c(C)nc3cc(C(F)(F)F)c4c(c3c2=O)C(=O)CC4)c2scc(C(=O)O)c2n1 [compound 1974]
109 nM | Cc1cc(-c2cc(Cl)ccc2OCCn2c(=O)c3c(C#N)cc(C(F)(F)F)cc3n(C)c2=O)c2scc(C(=O)O)c2n1 [compound 1975]

Compound | IC50
N#Cc1cccc2nc(C(F)F)n(CCOc3ccc(Cl)cc3-c3cccc(C(=O)O)c3)c(=O)c12 [compound 1973] | 14.3 nM
